# Source: patent US20240158446A1, “CYCLIC COMPOUND HAVING SELECTIVE INHIBITORY ACTION ON KRAS OVER HRAS AND NRAS” (CHUGAI SEIYAKU KABUSHIKI KAISHA, priority 2021, published 2024)
# Read-outs that look alike come from different tables or passages of the source. Where a SMILES comes first, the peptide text is derived from it. Bridges are numbered along the chain shown (N, C = ends). [ ]: non-standard residue; d: D form. The star is where a group is joined. hPhe(3-Cl-4-CF3) = N[C@@H](CCc1ccc(C(F)(F)F)c(Cl)c1)C(=O)O; NPrPhe(4-CF3) = CCCN[C@@H](Cc1ccc(C(F)(F)F)cc1)C(=O)O; NMeGly(cPent) = CN[C@H](C(=O)O)C1CCCC1; Hyp = O=C(O)[C@@H]1C[C@@H](O)CN1; Piperidide(4-Me) = CC1CCN(*)CC1; NMeD = CN[C@@H](CC(=O)O)C(=O)O; NMeL = CN[C@@H](CC(C)C)C(=O)O; Morpholide = C1CN(*)CCO1; NMeA = CN[C@@H](C)C(=O)O; Ac5c = NC1(C(=O)O)CCCC1; Aze = O=C(O)[C@@H]1CCN1; NPrGly = CCCNCC(=O)O; Sar = CNCC(=O)O
# Assays:
# [1] = biological target: GDP-bound HRAS wild-type protein (Homo sapiens, UniProt P01112); assay: Binding to HRAS by surface plasmon resonance (SPR), Single Cycle Kinetics; settings: SPR, GDP-bound HRAS wild-type protein vs GDP-bound KRAS wild-type protein
# [2] = biological target: GDP-bound NRAS wild-type protein (Homo sapiens, UniProt P01111); assay: Binding to NRAS by surface plasmon resonance (SPR), Single Cycle Kinetics; settings: SPR, GDP-bound NRAS wild-type protein vs GDP-bound KRAS wild-type protein
# [3] = biological target: GDP-bound KRAS wild-type protein (Homo sapiens, UniProt P01116); assay: Binding to KRAS by surface plasmon resonance (SPR), Single Cycle Kinetics; settings: GDP-bound KRAS wild-type protein, read-out: KRAS KD
# [4] = SPR Single Cycle Kinetics, 1:1 binding model
# Sequence of GDP-bound KRAS wild-type protein (P01116 whole entry): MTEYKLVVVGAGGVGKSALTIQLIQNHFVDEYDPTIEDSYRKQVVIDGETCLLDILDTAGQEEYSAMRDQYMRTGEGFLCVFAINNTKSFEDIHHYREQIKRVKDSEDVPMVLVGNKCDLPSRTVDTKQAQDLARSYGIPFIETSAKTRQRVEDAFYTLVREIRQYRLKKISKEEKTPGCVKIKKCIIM
# Sequence of GDP-bound NRAS wild-type protein (P01111 whole entry): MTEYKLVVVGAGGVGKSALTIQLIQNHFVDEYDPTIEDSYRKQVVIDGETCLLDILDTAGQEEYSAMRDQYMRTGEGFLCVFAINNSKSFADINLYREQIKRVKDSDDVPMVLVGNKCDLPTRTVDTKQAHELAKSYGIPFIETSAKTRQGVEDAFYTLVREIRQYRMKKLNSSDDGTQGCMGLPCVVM
# Sequence of GDP-bound HRAS wild-type protein (P01112 whole entry): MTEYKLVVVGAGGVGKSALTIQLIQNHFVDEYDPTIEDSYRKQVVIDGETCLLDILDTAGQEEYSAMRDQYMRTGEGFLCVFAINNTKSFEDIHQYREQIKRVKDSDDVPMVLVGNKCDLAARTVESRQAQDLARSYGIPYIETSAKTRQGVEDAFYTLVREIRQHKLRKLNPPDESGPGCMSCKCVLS
SMILES,HRAS/KRAS (ratio of KD value for HRAS to KD value for KRAS) [1],NRAS/KRAS (ratio of KD value for NRAS to KD value for KRAS) [2],"Kd [3, 4] [nM]","Kd ([3]; SPR, Single Cycle Kinetics) [nM]",also measured
CCCN1C(=O)CN(C)C(=O)[C@@H]2CCN2C(=O)[C@H]([C@@H](C)CC)NC(=O)[C@H](CC(C)C)N(C)C(=O)C[C@@H](C(=O)N(C)C)NC(=O)[C@H](C2CCCC2)N(C)C(=O)C2(CCCC2)NC(=O)[C@@H]2C[C@@H](OCC)CN2C(=O)[C@H](CCc2ccc(C(F)(F)F)c(Cl)c2)NC(=O)CN(C)C(=O)[C@@H]1Cc1ccc(C(F)(F)F)cc1 [PP0377] ([NMeL]I[Aze][Sar][NPrPhe(4-CF3)][Sar][hPhe(3-Cl-4-CF3)][Hyp](Et)[Ac5c][NMeGly(cPent)]D-NMe2; lactam N-11),C (A compound having a KD ratio of 0.1 or more and less than 3 is denoted as C),B (a compound having 3 or more and less than 10 is denoted as B),0.7,–,–
CCCN1C(=O)[C@@H]2CCN2C(=O)[C@H](C)N(C)C(=O)[C@H]([C@@H](C)CC)NC(=O)[C@H](CC(C)C)N(C)C(=O)C[C@@H](C(=O)N2CCC(C)CC2)N(C)C(=O)[C@H](C2CCCC2)N(C)C(=O)C2(CCCC2)NC(=O)[C@@H]2CCCN2C(=O)[C@H](CCc2ccc(C(F)(F)F)c(Cl)c2)NC(=O)CN(C)C(=O)[C@@H]1Cc1ccc(C(F)(F)F)cc1 [PP0185] ([NMeL]I[NMeA][Aze][NPrPhe(4-CF3)][Sar][hPhe(3-Cl-4-CF3)]P[Ac5c][NMeGly(cPent)][NMeD]-{Piperidide(4-Me)}; lactam N-11),B (a compound having 3 or more and less than 10 is denoted as B),C (A compound having a KD ratio of 0.1 or more and less than 3 is denoted as C),1.1,–,–
CCO[C@@H]1C[C@H]2C(=O)NC3(CC(C)(C)C3)C(=O)N(C)[C@@H](C(CC)CC)C(=O)N(C)[C@H](C(=O)N3CCCC3)CC(=O)N(C)[C@@H](COC)C(=O)N[C@@H]([C@@H](C)CC)C(=O)N(C)CC(=O)N(C)[C@H]3C/C=C\CCN(C3=O)[C@@H](Cc3ccc(C)cc3)C(=O)N(C)CC(=O)N[C@@H](CCc3ccc(C(F)(F)F)c(Cl)c3)C(=O)N2C1 [PP2144],A (a compound having 10 or more and less than 20 is denoted as A),AA (a compound having 20 or more is denoted as AA),–,0.48,–
CCO[C@@H]1C[C@H]2C(=O)NC3(CC(F)(F)C3)C(=O)N(C)[C@@H](C3CCCC3)C(=O)N(C)[C@H](C(=O)N3CCOCC3)CC(=O)N(C)[C@@H](COC)C(=O)N[C@@H]([C@@H](C)CC)C(=O)N(C)CC(=O)N(C)[C@H]3CCCCCN(C3=O)[C@@H](Cc3ccc(C(F)(F)F)cc3)C(=O)N(C)CC(=O)N[C@@H](CCc3cc(F)c(C(F)(F)F)c(F)c3)C(=O)N2C1 [PP0843],B (a compound having 3 or more and less than 10 is denoted as B),B (a compound having 3 or more and less than 10 is denoted as B),–,0.52,–
CC[C@H](C)[C@@H]1NC(=O)[C@H](CC(C)C)N(C)C(=O)C[C@@H](C(=O)N2CCOCC2)N(C)C(=O)[C@H](C2CCCC2)N(C)C(=O)C2(CCC2)NC(=O)[C@@H]2C[C@@H](C(F)(F)F)CN2C(=O)[C@H](CCc2cc(F)c(C(F)(F)F)c(F)c2)NC(=O)CN(C)C(=O)[C@H](Cc2ccc(C(F)(F)F)cc2)N2CCCCC[C@@H](C2=O)N(C)C(=O)CN(C)C1=O [PP0818],B (a compound having 3 or more and less than 10 is denoted as B),B (a compound having 3 or more and less than 10 is denoted as B),–,1.7,–
CCC[C@H]1C(=O)N[C@@H](C2CCCC2)C(=O)N(C)CC(=O)N(C)[C@H]2C/C=C\CCN(C2=O)[C@@H](Cc2ccc(C(F)(F)F)cc2)C(=O)N(C)CC(=O)N[C@@H](CCc2ccc(C(F)(F)F)c(Cl)c2)C(=O)N2C[C@H](OCC)C[C@H]2C(=O)NC2(CC(C)(C)C2)C(=O)N(C)[C@@H](CC(C)(C)C)C(=O)N(C)[C@H](C(=O)N(C)C)CC(=O)N1C [PP2971],A (a compound having 10 or more and less than 20 is denoted as A),A (a compound having 10 or more and less than 20 is denoted as A),–,0.19,–
CCO[C@@H]1C[C@H]2C(=O)NC3(CCC3)C(=O)N(C)[C@@H](C(CC)CC)C(=O)N(C)[C@H](C(=O)N(C)C)CC(=O)N(C)[C@@H](CC3CCCC3)C(=O)N[C@@H]([C@@H](C)CC)C(=O)N(C)CC(=O)N(C)[C@H]3C/C=C\CCN(C3=O)[C@@H](Cc3ccc(F)cc3)C(=O)N(C)CC(=O)N[C@@H](CCc3cc(F)c(C(F)(F)F)c(F)c3)C(=O)N2C1 [PP1517],–,–,–,–,"HRAS/KRAS (ratio of KD value for HRAS to KD value for KRAS) ([1]; KD ratio class): A (a compound having 10 or more and less than 20 is denoted as A); NRAS/KRAS (ratio of KD value for NRAS to KD value for KRAS) ([2]; KD ratio class): A (a compound having 10 or more and less than 20 is denoted as A); Kd ([3]; SPR, Single Cycle Kinetics, 1:1 binding model): 0.43 nM"
CCCO[C@@H]1C[C@H]2C(=O)NC3(CC(C)(C)C3)C(=O)N(C)[C@@H](C3CCCC3)C(=O)N(C)[C@H](C(=O)N3CCCC3)CC(=O)N(C)[C@H]3CCCc4ccc(cc4)C[C@@H](C(=O)N(C)CC(=O)N[C@@H](CCc4ccc(C(F)(F)F)c(OC)c4)C(=O)N2C1)N1CC/C=C\C[C@@H](C1=O)N(C)C(=O)CN(C)C(=O)[C@H]([C@@H](C)CC)NC3=O [PP3065],B (a compound having 3 or more and less than 10 is denoted as B),A (a compound having 10 or more and less than 20 is denoted as A),–,0.23,–
CCCN1CC(=O)NC2(CCCC2)C(=O)N(C)[C@@H](C2CCCC2)C(=O)N(C)[C@H](C(=O)N2CCOCC2)CC(=O)N(C)[C@@H](CC(C)C)C(=O)N[C@@H]([C@@H](C)CC)C(=O)N(C)[C@@H](C)C(=O)N2CC[C@H]2C(=O)N(CCC)[C@@H](Cc2ccc(C(F)(F)F)cc2)C(=O)N(C)CC(=O)N[C@@H](CCc2ccc(C(F)(F)F)c(Cl)c2)C1=O [PP0288] ([NMeL]I[NMeA][Aze][NPrPhe(4-CF3)][Sar][hPhe(3-Cl-4-CF3)][NPrGly][Ac5c][NMeGly(cPent)][NMeD]-Morpholide; lactam N-11),B (a compound having 3 or more and less than 10 is denoted as B),C (A compound having a KD ratio of 0.1 or more and less than 3 is denoted as C),0.42,–,–
CCO[C@@H]1C[C@H]2C(=O)NC3(CC(C)(C)C3)C(=O)N(C)[C@@H](C3CCCC3)C(=O)N(C)[C@H](C(=O)N(C)C)CC(=O)N(C)[C@@H](CC)C(=O)N[C@@H]([C@@H](C)CC)C(=O)N(C)CC(=O)N(C)[C@H]3C/C=C\CCN(C3=O)[C@@H](Cc3ccc(Cl)cc3F)C(=O)N(C)CC(=O)N[C@@H](CCc3cc(F)c(C(F)(F)F)c(F)c3)C(=O)N2C1 [PP2048],B (a compound having 3 or more and less than 10 is denoted as B),A (a compound having 10 or more and less than 20 is denoted as A),–,0.071,–
CC[C@H](C)[C@@H]1NC(=O)[C@H](CC)N(C)C(=O)C[C@@H](C(=O)N(C)C)N(C)C(=O)[C@H](C2CCCC2)N(C)C(=O)C2(CCC2)NC(=O)[C@@H]2C[C@@H](N3CCC(F)(F)CC3)CN2C(=O)[C@H](CCc2cc(F)c(C(F)(F)F)c(F)c2)NC(=O)CN(C)C(=O)[C@H](Cc2ccc(C(F)(F)F)cc2)N2CCCC[C@@H](C2=O)N(C)C(=O)CN(C)C1=O [PP0656],–,–,0.039,–,HRAS/KRAS (ratio of KD value with respect to HRAS to KD value with respect to KRAS) [1]: C (A compound having a KD ratio of 0.1 or more and less than 3 is denoted as C); NRAS/KRAS (ratio of KD value with respect to NRAS to KD value with respect to KRAS) [2]: C (A compound having a KD ratio of 0.1 or more and less than 3 is denoted as C)
CC[C@H](C)[C@@H]1NC(=O)[C@H](CC(C)C)N(C)C(=O)C[C@@H](C(=O)N2CCOCC2)N(C)C(=O)[C@H](C2CCCC2)N(C)C(=O)C2(CCCC2)NC(=O)[C@@H]2CCCN2C(=O)[C@H](CCc2ccc(C(F)(F)F)c(Cl)c2)NC(=O)CN(C)C(=O)[C@H](Cc2ccc(C(F)(F)F)cc2)N2CC=CC[C@@H](C2=O)N(C)C(=O)CN(C)C1=O [PP0462],–,–,0.32,–,HRAS/KRAS (ratio of KD value with respect to HRAS to KD value with respect to KRAS) [1]: C (A compound having a KD ratio of 0.1 or more and less than 3 is denoted as C); NRAS/KRAS (ratio of KD value with respect to NRAS to KD value with respect to KRAS) [2]: C (A compound having a KD ratio of 0.1 or more and less than 3 is denoted as C)
CCC[C@H]1C(=O)N[C@@H]([C@@H](C)CC)C(=O)N(C)CC(=O)N(C)[C@H]2C/C=C\CCN(C2=O)[C@@H](Cc2ccc(C(F)(F)F)cc2)C(=O)N(C)CC(=O)N[C@@H](CCc2ccc(C(F)(F)F)c(Cl)c2)C(=O)N2CC3(CC3)C[C@H]2C(=O)NC2(CC(C)(C)C2)C(=O)N(C)[C@@H](CC(C)(C)C)C(=O)N(C)[C@H](C(=O)N(C)C)CC(=O)N1C [PP2979],B (a compound having 3 or more and less than 10 is denoted as B),A (a compound having 10 or more and less than 20 is denoted as A),–,0.28,–
